# Laboratory results from US20090117083A1, “IMMUNOMODULATORY ALKALOIDS” (M N L PHARMA LIMITED, priority 2004, published 2009).
# Like-named read-outs stand apart in the source and are kept apart here.
# Columns and labels:
# Naringinase = assay: Glycosidase inhibition: Naringinase; format: biochemical, Penecillium decumbens; settings: 1 mg/ml
# Outline: (§1)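 Enzymes assayed at 20 °C in McIlvaine citrate/phosphate buffer at each enzyme's optimum pH with p-nitrophenyl substrate at 3.57 mM final. Reactions stopped with 0.4M glycine pH 10.4 within the exponential phase; endpoint absorbance at 405 nm against water blanks.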
# α-D-glucosidase [1] = target: T1, α-D-glucosidase (Oryza sativa subsp. japonica, UniProt Q653V7); assay: Glycosidase inhibition: α-D-glucosidase, rice; format: biochemical, rice (Oryza sativa); settings: 1 mg/ml; read-out: % inhibition, gluc (rice)
# T1 construct: purchased Sigma
# Outline: as §1
# [2] = target: T2, rabbit small intestine sucrase (Oryctolagus cuniculus, UniProt P07768); assay: Inhibition of rabbit small intestine sucrase; format: biochemical; settings: 700 μM
# T2 construct: from tissue; host or cells: rabbit small intestine
# α-D-galactosidase = target: T3, α-D-galactosidase (Coffea arabica, UniProt Q42656); assay: Glycosidase inhibition: α-D-galactosidase; format: biochemical, Green coffee beans (Coffea sp.); settings: read-out: % inhibition, galactosidase
# T3 construct: purchased Sigma
# Protocol: (§2) All enzymes were purchased from Sigma, as were the appropriate p-nitrophenyl substrates. Assays were carried out in microtitre plates. Enzymes were assayed in 0.1M citric acid/0.2M di-sodium hydrogen phosphate (McIlvaine) buffers at the optimum pH for the enzyme. All assays were carried out at 20° C. For screening assays the incubation assay consisted of 10 μl of enzyme solution, 10 μl of inhibitor solution (made up in water) and 50 μl of the appropriate 5 mM p-nitrophenyl substrate (3.57 mM final conc.) made up in McIlvaine buffer at the optimum pH for the enzyme.
# (§3) The reactions were stopped with 0.4M glycine (pH 10.4) during the exponential phase of the reaction, which was determined at the beginning of the assay using blanks with water, which were incubated for a range of time periods to measure the reaction rate using 5 mM substrate solution. Endpoint absorbances were read at 405 nm with a Biorad microtitre plate reader (Benchmark). Water was substituted for the inhibitors in the blanks.
# [3] = target: rabbit gut mucosa α-D-glucosidase; assay: Inhibition of rabbit gut mucosa α-D-glucosidase; format: biochemical
# α-D-glucosidase [4] = target: T4, α-D-glucosidase (Saccharomyces cerevisiae, UniProt P53341); assay: Glycosidase inhibition (p-nitrophenyl substrate): α-D-glucosidase, yeast; format: biochemical, Saccharomyces cerevisiae (Baker's yeast)
# T4 construct: purchased Sigma
# Protocol: as §2, §3
# [5] = tested on: N-acetyl-β-D-glucosaminidase; assay: Glycosidase inhibition: N-acetyl-β-D-glucosaminidase; format: biochemical, Bovine; settings: 1 mg/ml
# Outline: as §1
# [6] = Group 1: 15 mg/kg i.p. daily, day 0
# [7] = Group 1: 15 mg/kg i.p. daily, day 1
# [8] = Group 1: 15 mg/kg i.p. daily, day 2
# [9] = Group 1: 15 mg/kg i.p. daily, day 3
# [10] = Group 1: 15 mg/kg i.p. daily, day 4
# [11] = Group 1: 15 mg/kg i.p. daily, day 5
# [12] = Group 1: 15 mg/kg i.p. daily, day 6
# [13] = Group 1: 15 mg/kg i.p. daily, day 7
# [14] = Group 1: 15 mg/kg i.p. daily, day 8
# [15] = Group 1: 15 mg/kg i.p. daily, day −2
# [16] = Group 2: 150 mg/kg i.p. daily, day 0
# [17] = Group 2: 150 mg/kg i.p. daily, day 1
# [18] = Group 2: 150 mg/kg i.p. daily, day 2
# [19] = Group 2: 150 mg/kg i.p. daily, day 3
# [20] = Group 2: 150 mg/kg i.p. daily, day 4
# [21] = Group 2: 150 mg/kg i.p. daily, day 5
# [22] = Group 2: 150 mg/kg i.p. daily, day 6
# [23] = Group 2: 150 mg/kg i.p. daily, day 7
# [24] = Group 2: 150 mg/kg i.p. daily, day 8
# [25] = Group 2: 150 mg/kg i.p. daily, day −2
# T4 sequence (P53341 whole entry): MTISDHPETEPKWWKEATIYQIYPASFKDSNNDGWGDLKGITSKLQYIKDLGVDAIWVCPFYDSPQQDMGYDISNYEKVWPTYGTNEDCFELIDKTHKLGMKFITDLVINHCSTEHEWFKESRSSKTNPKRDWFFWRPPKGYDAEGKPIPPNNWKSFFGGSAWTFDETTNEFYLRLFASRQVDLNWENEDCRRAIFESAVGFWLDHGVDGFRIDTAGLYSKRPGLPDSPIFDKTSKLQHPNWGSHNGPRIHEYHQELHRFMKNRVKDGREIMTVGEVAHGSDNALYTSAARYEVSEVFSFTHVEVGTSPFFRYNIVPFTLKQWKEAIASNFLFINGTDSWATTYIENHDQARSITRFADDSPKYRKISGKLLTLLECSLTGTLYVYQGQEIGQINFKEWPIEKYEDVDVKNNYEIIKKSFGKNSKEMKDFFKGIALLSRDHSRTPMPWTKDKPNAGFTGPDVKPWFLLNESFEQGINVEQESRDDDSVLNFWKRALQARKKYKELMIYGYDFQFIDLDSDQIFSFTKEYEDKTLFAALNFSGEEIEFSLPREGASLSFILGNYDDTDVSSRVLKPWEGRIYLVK
# T3 sequence (Q42656 16-378): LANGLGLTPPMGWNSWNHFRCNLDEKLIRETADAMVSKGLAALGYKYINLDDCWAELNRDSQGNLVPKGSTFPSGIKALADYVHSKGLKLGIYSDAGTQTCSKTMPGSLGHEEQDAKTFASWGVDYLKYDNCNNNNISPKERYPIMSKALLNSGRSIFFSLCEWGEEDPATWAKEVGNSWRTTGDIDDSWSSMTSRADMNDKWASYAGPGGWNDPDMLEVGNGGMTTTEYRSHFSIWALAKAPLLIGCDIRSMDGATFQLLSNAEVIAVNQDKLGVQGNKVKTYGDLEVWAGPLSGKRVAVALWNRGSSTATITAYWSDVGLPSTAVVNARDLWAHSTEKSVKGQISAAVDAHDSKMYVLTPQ
# T2 sequence (P07768 1008-1827 limits assumed): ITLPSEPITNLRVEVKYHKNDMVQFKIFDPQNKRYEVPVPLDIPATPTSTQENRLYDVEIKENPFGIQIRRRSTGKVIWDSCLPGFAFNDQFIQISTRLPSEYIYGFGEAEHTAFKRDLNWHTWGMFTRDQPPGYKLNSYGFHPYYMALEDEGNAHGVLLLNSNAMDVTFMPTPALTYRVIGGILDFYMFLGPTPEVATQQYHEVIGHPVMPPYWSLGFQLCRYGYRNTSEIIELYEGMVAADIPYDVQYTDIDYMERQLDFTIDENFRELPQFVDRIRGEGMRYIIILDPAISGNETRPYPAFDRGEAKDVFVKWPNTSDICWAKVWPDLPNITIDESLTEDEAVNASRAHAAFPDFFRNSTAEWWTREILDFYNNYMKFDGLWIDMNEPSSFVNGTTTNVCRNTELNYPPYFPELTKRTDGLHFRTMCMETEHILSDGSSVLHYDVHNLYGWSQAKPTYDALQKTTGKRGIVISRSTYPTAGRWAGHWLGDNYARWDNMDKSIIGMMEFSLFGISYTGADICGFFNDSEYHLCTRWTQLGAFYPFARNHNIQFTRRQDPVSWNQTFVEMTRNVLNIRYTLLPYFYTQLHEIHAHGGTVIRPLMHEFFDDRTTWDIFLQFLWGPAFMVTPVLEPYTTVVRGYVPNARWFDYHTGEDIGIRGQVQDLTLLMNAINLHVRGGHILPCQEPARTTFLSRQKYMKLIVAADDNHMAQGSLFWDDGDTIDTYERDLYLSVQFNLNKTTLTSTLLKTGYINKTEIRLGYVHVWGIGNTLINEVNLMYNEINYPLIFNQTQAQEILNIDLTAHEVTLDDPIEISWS
# T2 sequence (P07768 2-1007 partner limits assumed): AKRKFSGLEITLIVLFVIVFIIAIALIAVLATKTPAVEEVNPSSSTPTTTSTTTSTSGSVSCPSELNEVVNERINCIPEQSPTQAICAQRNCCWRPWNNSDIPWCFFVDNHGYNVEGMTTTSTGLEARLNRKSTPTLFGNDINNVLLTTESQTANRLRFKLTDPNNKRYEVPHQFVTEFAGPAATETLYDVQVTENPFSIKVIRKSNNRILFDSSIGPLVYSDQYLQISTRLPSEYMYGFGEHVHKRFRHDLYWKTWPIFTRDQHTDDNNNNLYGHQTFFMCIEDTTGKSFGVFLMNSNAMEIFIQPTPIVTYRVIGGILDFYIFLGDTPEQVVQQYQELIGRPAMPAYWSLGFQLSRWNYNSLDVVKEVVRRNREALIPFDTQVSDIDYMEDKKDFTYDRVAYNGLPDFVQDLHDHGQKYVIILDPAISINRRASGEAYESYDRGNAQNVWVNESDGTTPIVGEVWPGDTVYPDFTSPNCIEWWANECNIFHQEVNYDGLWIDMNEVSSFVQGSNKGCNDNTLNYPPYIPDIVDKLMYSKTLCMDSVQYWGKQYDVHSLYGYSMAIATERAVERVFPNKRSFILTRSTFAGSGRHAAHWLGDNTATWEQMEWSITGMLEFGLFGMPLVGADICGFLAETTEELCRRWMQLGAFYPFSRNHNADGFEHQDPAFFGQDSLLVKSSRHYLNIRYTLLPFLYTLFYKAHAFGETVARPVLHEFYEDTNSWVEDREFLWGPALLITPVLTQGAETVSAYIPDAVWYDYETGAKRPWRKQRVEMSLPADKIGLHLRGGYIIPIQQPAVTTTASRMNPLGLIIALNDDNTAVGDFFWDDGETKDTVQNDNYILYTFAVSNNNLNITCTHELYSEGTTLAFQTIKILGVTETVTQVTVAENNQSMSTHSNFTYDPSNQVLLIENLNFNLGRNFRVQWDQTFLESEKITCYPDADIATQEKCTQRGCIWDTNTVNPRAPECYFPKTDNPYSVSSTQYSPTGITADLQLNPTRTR
# T1 sequence (Q653V7 34-885): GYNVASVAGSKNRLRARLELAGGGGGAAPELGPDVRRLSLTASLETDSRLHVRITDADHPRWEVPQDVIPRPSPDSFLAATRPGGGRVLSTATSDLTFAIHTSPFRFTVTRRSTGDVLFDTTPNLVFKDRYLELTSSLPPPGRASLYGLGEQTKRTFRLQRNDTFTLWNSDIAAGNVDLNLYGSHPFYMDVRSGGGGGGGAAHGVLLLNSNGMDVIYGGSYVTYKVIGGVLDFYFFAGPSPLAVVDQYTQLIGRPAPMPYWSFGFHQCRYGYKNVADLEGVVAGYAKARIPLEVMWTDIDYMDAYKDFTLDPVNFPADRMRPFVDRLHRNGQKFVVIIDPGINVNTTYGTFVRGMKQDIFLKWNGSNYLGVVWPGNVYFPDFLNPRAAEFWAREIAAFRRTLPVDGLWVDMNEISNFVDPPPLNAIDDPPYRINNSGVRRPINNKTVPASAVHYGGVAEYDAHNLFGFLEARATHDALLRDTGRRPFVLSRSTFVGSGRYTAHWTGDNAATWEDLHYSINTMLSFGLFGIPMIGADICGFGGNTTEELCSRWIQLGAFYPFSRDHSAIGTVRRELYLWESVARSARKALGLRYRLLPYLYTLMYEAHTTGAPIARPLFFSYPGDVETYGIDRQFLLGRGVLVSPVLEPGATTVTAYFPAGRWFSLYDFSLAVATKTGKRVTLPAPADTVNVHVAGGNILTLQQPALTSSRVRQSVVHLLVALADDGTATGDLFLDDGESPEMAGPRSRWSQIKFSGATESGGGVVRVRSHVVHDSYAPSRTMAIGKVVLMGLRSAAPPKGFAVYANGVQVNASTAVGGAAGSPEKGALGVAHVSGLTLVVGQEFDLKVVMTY
compound,measurement,setting,value
OC[C@@H]1[C@@H](O)[C@H](O)[C@H]2[C@H](O)[C@@H](O)CN21 [casuarine (8)],"% inhibition, Naringinase",Naringinase,−2%
same,inhibition at 1000 µg/mL,α-D-glucosidase [1],76%
same,inhibition of rabbit small intestine sucrase,[2],inhibited
same,inhibition at 1000 µg/mL,α-D-galactosidase,4%
same,IC50,[3],210 µM
same,Ki,α-D-glucosidase [4],217 µM
same,inhibition at 1000 µg/mL,"α-D-glucosidase [4]; 1 mg/ml, read-out: % inhibition, gluc (yeast)",64%
same,Group mean weight,HSV-1 (SC16); [6],16.7 g
same,Weight (% change),HSV-1 (SC16); [6],3.1%
same,Group mean weight,HSV-1 (SC16); [7],17.1 g
same,Weight (% change),HSV-1 (SC16); [7],5.6%
same,Group mean weight,HSV-1 (SC16); [8],17.1 g
same,Weight (% change),HSV-1 (SC16); [8],5.6%
same,Group mean weight,HSV-1 (SC16); [9],17.6 g
same,Weight (% change),HSV-1 (SC16); [9],8.6%
same,Group mean weight,HSV-1 (SC16); [10],17.4 g
same,Weight (% change),HSV-1 (SC16); [10],7.4%
same,Group mean weight,HSV-1 (SC16); [11],17.6 g
same,Weight (% change),HSV-1 (SC16); [11],8.6%
same,Group mean weight,HSV-1 (SC16); [12],17.7 g
same,Weight (% change),HSV-1 (SC16); [12],9.2%
same,Group mean weight,HSV-1 (SC16); [13],17.4 g
same,Weight (% change),HSV-1 (SC16); [13],7.4%
same,Group mean weight,HSV-1 (SC16); [14],17.7 g
same,Weight (% change),HSV-1 (SC16); [14],9.3%
same,Group mean weight,HSV-1 (SC16); [15],16.2 g
same,Weight (% change),HSV-1 (SC16); [15],0%
same,Group mean weight,HSV-1 (SC16); [16],16 g
same,Weight (% change),HSV-1 (SC16); [16],3.2%
same,Group mean weight,HSV-1 (SC16); [17],16.4 g
same,Weight (% change),HSV-1 (SC16); [17],5.8%
same,Group mean weight,HSV-1 (SC16); [18],16.3 g
same,Weight (% change),HSV-1 (SC16); [18],5.2%
same,Group mean weight,HSV-1 (SC16); [19],16.6 g
same,Weight (% change),HSV-1 (SC16); [19],7.1%
same,Group mean weight,HSV-1 (SC16); [20],16.4 g
same,Weight (% change),HSV-1 (SC16); [20],5.8%
same,Group mean weight,HSV-1 (SC16); [21],16.8 g
same,Weight (% change),HSV-1 (SC16); [21],8.4%
same,Group mean weight,HSV-1 (SC16); [22],17 g
same,Weight (% change),HSV-1 (SC16); [22],9.7%
same,Group mean weight,HSV-1 (SC16); [23],16.7 g
same,Weight (% change),HSV-1 (SC16); [23],7.7%
same,Group mean weight,HSV-1 (SC16); [24],16.8 g
same,Weight (% change),HSV-1 (SC16); [24],8.4%
same,Group mean weight,HSV-1 (SC16); [25],15.5 g
same,Weight (% change),HSV-1 (SC16); [25],0%
same,ear thickness response,HSV-1 (SC16); versus infected untreated group,produced a reduction in ear thickness
same,"% inhibition, N-acetyl-β-gluc",[5],14%
